Values quoted from earlier work in patent publication US20100204282A1, “Reverse indoles as 5-lipoxygenase-activating protein (FLAP) inhibitors” (priority 2007, published 2010).

Columns and labels:
[1] = for efficacy in asthma: in vivo
[2] = system: porcine carotid injury model
[3] = system: rat photochemical model of endothelial injury
[4] = system: mouse model of renal ischemia

SMILES	efficacy in asthma [1]	further results
O=C(O)[C@@H](c1ccc(OCc2ccc3ccccc3n2)cc1)C1CCCC1 [BAY X1005, (R)-2-[4-(quinolin-2-yl-methoxy)phenyl]-2-cyclopentyl acetic acid]	have efficacy in asthma	–
CC(C)(C)Sc1c(CC(C)(C)C(=O)O)n(Cc2ccc(Cl)cc2)c2ccc(OCc3ccc4ccccc4n3)cc12 [MK-0591, 2-((5-((quinolin-2-yl)methoxy)-1-(4-chlorobenzyl)-3-(tert-butylthio)-1H-indol-2-yl)methyl)-2-methylpropanoic acid]	have efficacy in asthma	–
CC(C)c1ccc2c(c1)c(SC(C)(C)C)c(CC(C)(C)C(=O)O)n2Cc1ccc(Cl)cc1 [MK-886, 2-((1-(4-chlorobenzyl)-3-(tert-butylthio)-5-isopropyl-1H-indol-2-yl)methyl)-2-methylpropanoic acid]	have efficacy in asthma	postangioplasty vasoconstrictive response [2]: decreases the postangioplasty vasoconstrictive response; femoral artery intimal hyperplasia [3]: suppresses femoral artery intimal hyperplasia
CC(C)(O)c1ccccc1CCC(SCC1(CC(=O)O)CC1)c1cccc(C=Cc2ccc3ccc(Cl)cc3n2)c1 (stereo not drawn) [montelukast, [1-[[1-[3-[2-[(7-chloro-2-quinolyl)]vinyl]phenyl]-3-[2-(1-hydroxy-1-methyl-ethyl)phenyl]-propyl]sulfanylmethyl]cyclopropyl]acetic acid]	–	efficacy in asthma and allergic rhinitis ([1]; CysLT1 receptor antagonist): efficacious in asthma and allergic rhinitis
COc1cc(C(=O)NS(=O)(=O)c2ccccc2C)ccc1Cc1cn(C)c2ccc(NC(=O)OC3CCCC3)cc12 [zafirlukast]	efficacious in asthma	–
CC(c1cc2ccccc2s1)N(O)C(N)=O (stereo not drawn) [zileuton]	has efficacy in asthma	renal ischemia [4]: reduce renal ischemia
